From US20230373930A1, “AMINOIMIDAZOLE FPR2 AGONISTS” (BRISTOL-MYERS SQUIBB COMPANY, priority 2020, published 2023)

Experiments:
[1] = target: T1, human FPR2 (Homo sapiens, UniProt P25090); experiment: FPR2 cyclic adenosine monophosphate (cAMP) assay; format: cell-based; conditions: CHO cells overexpressing human FPR2; forskolin 5 μM; inhibition of cAMP production; HTRF; read-out: hFPR2 cAMP2 EC50
T1 sequence (P25090 1-351): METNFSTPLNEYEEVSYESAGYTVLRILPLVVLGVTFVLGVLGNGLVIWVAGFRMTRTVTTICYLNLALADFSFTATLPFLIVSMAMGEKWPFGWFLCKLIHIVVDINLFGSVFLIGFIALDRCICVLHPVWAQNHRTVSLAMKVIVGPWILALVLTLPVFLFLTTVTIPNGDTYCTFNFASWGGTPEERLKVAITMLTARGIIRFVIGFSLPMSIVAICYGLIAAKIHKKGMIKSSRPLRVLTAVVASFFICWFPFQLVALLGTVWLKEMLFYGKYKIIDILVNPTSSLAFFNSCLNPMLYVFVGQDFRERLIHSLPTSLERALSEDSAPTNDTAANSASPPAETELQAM
Description: (§1) FPR2 and FPR1 Cyclic Adenosine Monophosphate (cAMP) Assays. A mixture of forskolin (5 μM final for FPR2 or 10 μM final for FPR1) and IBMX (200 μM final) were added to 384-well Proxiplates (Perkin-Elmer) pre-dotted with test compounds in DMSO (1% final) at final concentrations in the range of 0.020 nM to 100 μM. Chinese Hamster Ovary cells (CHO) overexpressing human FPR1 or human FPR2 receptors were cultured in F-12 (Ham's) medium supplemented with 10% qualified FBS, 250 μg/ml zeocin and 300 μg/ml hygromycin (Life Technologies). Reactions were initiated by adding 2,000 human FPR2 cells per well or 4,000 human FPR1 cells per well in Dulbecco's PBS (with calcium and magnesium) (Life Technologies) supplemented with 0.1% BSA (Perkin-Elmer). The reaction mixtures were incubated for 30 min at room temperature. The level of intracellular cAMP was determined using the HTRF HiRange cAMP assay reagent kit (Cisbio) according to manufacturer's instruction. Solutions of cryptate conjugated anti-cAMP and d2 flurorophore-labelled cAMP were made in a supplied lysis buffer separately. Upon completion of the reaction, the cells were lysed with equal volume of the d2-cAMP solution and anti-cAMP solution. After a 1-h room temperature incubation, time-resolved fluorescence intensity was measured using the Envision (Perkin-Elmer) at 400 nm excitation and dual emission at 590 nm and 665 nm. A calibration curve was constructed with an external cAMP standard at concentrations ranging from 1 μM to 0.1 μM by plotting the fluorescent intensity ratio from 665 nm emission to the intensity from the 590 nm emission against cAMP concentrations. The potency and activity of a compound to inhibit cAMP production was then determined by fitting to a 4-parametric logistic equation from a plot of cAMP level versus compound concentrations.

[2] = target: T2, human FPR1 (Homo sapiens, UniProt P21462); experiment: FPR1 cyclic adenosine monophosphate (cAMP) assay; format: cell-based; conditions: CHO cells overexpressing human FPR1; forskolin 10 μM; inhibition of cAMP production; HTRF; read-out: hFPR1 cAMP2 EC50
T2 sequence (P21462 1-350): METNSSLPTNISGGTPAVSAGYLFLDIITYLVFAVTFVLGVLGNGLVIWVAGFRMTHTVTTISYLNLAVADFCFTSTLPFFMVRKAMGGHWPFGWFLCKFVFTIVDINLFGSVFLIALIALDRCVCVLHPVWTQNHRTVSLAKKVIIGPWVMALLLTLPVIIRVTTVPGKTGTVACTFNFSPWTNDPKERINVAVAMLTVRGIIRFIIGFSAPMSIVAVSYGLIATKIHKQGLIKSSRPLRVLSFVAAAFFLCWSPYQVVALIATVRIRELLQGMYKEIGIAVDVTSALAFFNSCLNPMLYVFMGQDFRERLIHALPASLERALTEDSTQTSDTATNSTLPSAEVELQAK
Description: as §1

## COc1cc(F)c(-n2cc(C(=O)N3CCC[C@H]3CO)nc2NC(=O)c2ccc(OC(F)F)cc2)c(F)c1 [Example 50, N-[1-(2,6-Difluoro-4-methoxyphenyl)-4-[(2S)-2-(hydroxymethyl)pyrrolidine-1-carbonyl]-1H-imidazol-2-yl]-4-(difluoromethoxy)benzamide]
[1]
  EC50: 77 nM
[2]
  EC50: > 10000 nM

## COc1cc(F)c(-n2cc(C(=O)N3CCCC(O)C3)nc2NC(=O)c2ccc(OC(F)F)cc2)c(F)c1 (stereo not drawn) [Example 51, N-[1-(2,6-Difluoro-4-methoxyphenyl)-4-(3-hydroxypiperidine-1-carbonyl)-1H-imidazol-2-yl]-4-(difluoromethoxy)benzamide]
[1]
  EC50: 83 nM
[2]
  EC50: 2900 nM

## COc1cc(F)c(-n2cc(C(=O)N3CCC(O)CC3)nc2NC(=O)c2ccc(OC(F)F)cc2)c(F)c1 [Example 52, N-[1-(2,6-Difluoro-4-methoxyphenyl)-4-(4-hydroxypiperidine-1-carbonyl)-1H-imidazol-2-yl]-4-(difluoromethoxy)benzamide]
[1]
  EC50: 63 nM
[2]
  EC50: > 10000 nM

## COc1cc(F)c(-n2cc(C(=O)NCCO)nc2NC(=O)c2ccc(OC(F)F)cc2)c(F)c1 [Example 53, 1-(2,6-Difluoro-4-methoxyphenyl)-2-[4-(difluoromethoxy)benzamido]-N-(2-hydroxyethyl)-1H-imidazole-4-carboxamide]
[1]
  EC50: 130 nM
[2]
  EC50: 4100 nM

## COc1cc(F)c(-n2cc(C(=O)N3CCOCC3)nc2NC(=O)c2ccc(OC(F)F)cc2)c(F)c1 [Example 54, N-[1-(2,6-Difluoro-4-methoxyphenyl)-4-(morpholine-4-carbonyl)-1H-imidazol-2-yl]-4-(difluoromethoxy)benzamide]
[1]
  EC50: 320 nM
[2]
  EC50: > 10000 nM

## COc1cc(F)c(-n2cc(C(=O)N3CCN(C)CC3)nc2NC(=O)c2ccc(OC(F)F)cc2)c(F)c1 [Example 55, N-[1-(2,6-Difluoro-4-methoxyphenyl)-4-(4-methylpiperazine-1-carbonyl)-1H-imidazol-2-yl]-4-(difluoromethoxy)benzamide]
[1]
  EC50: 280 nM
[2]
  EC50: > 10000 nM

## COc1cc(F)c(-n2cc(C(=O)NCc3cnc(C)cn3)nc2NC(=O)c2ccc(OC(F)F)cc2)c(F)c1 [Example 56, 1-(2,6-Difluoro-4-methoxyphenyl)-2-[4-(difluoromethoxy)benzamido]-N-[(5-methylpyrazin-2-yl)methyl]-1H-imidazole-4-carboxmaide]
[1]
  EC50: 89 nM
[2]
  EC50: 110 nM

## COc1cc(F)c(-n2cc(C(=O)N3CC[C@H](O)C3)nc2NC(=O)c2ccc(OC(F)F)cc2)c(F)c1 [Example 57, N-[1-(2,6-Difluoro-4-methoxyphenyl)-4-[(3S)-3-hydroxypyrrolidine-1-carbonyl]-1H-imidazol-2-yl]-4-(difluoromethoxy)benzamide]
[1]
  EC50: 120 nM
[2]
  EC50: 1900 nM

## COc1cc(F)c(-n2cc(C(=O)N3CCNC(=O)C3)nc2NC(=O)c2ccc(OC(F)F)cc2)c(F)c1 [Example 58, N-[1-(2,6-Difluoro-4-methoxyphenyl)-4-(3-oxopiperazine-1-carbonyl)-1H-imidazol-2-yl]-4-(difluoromethoxy)benzamide]
[1]
  EC50: 170 nM
[2]
  EC50: 3400 nM

## COc1cc(F)c(-n2cc(C(=O)N3CCC(CO)C3)nc2NC(=O)c2ccc(OC(F)F)cc2)c(F)c1 (stereo not drawn) [Example 59, N-[1-(2,6-Difluoro-4-methoxyphenyl)-4-[3-(hydroxymethyl)pyrrolidine-1-carbonyl]-1H-imidazol-2-yl]-4-(difluoromethoxy)benzamide]
[1]
  EC50: 82 nM
[2]
  EC50: 2200 nM

## COc1cc(F)c(-n2cc(C(=O)NCCCO)nc2NC(=O)c2ccc(OC(F)F)cc2)c(F)c1 [Example 60, 1-(2,6-Difluoro-4-methoxyphenyl)-2-[4-(difluoromethoxy)benzamido]-N-(3-hydroxypropyl)-1H-imidazole-4-carboxamide]
[1]
  EC50: 56 nM
[2]
  EC50: 1400 nM

## COc1cc(F)c(-n2cc(C(=O)N3CCNCC3)nc2NC(=O)c2ccc(OC(F)F)cc2)c(F)c1 [Example 61, N-[1-(2,6-Difluoro-4-methoxyphenyl)-4-(piperazine-1-carbonyl)-1H-imidazol-2-yl]-4-(difluoromethoxy)benzamide]
[1]
  EC50: 130 nM
[2]
  EC50: > 10000 nM

## COc1cc(F)c(-n2cc(C(=O)Nc3cn[nH]c3)nc2NC(=O)c2ccc(OC(F)F)cc2)c(F)c1 [Example 62, 1-(2,6-Difluoro-4-methoxyphenyl)-2-[4-(difluoromethoxy)benzamido]-N-(1H-pyrazol-4-yl)-1H-imidazole-4-carboxamide]
[1]
  EC50: 32 nM
[2]
  EC50: 830 nM

## COc1cc(F)c(-n2cc(C3CCNCC3)nc2NC(=O)c2ccc(OC(F)F)cc2)c(F)c1 [Example 63, N-[1-(2,6-Difluoro-4-methoxyphenyl)-4-(piperidin-4-yl)-1H-imidazol-2-yl]-4-(difluoromethoxy)benzamide]
[1]
  EC50: 10 nM
[2]
  EC50: 710 nM

## COc1ccc(-n2cc(C3CCCNC3)nc2NC(=O)c2ccc(OC(F)F)cc2)cc1 (stereo not drawn) [Example 64, 4-(Difluoromethoxy)-N-[1-(4-methoxyphenyl)-4-(piperidin-3-yl)-1H-imidazol-2-yl]benzamide]
[1]
  EC50: 11 nM
[2]
  EC50: 210 nM

## CCS(=O)(=O)N1CCC(c2cn(-c3c(F)cc(OC)cc3F)c(NC(=O)c3ccc(OC(F)F)cc3)n2)CC1 [Example 65, N-[1-(2,6-Difluoro-4-methoxyphenyl)-4-[1-(ethanesulfonyl)piperidin-4-yl]-1H-imidazol-2-yl]-4-(difluoromethoxy)benzamide]
[1]
  EC50: 81 nM
[2]
  EC50: 320 nM

## CCNC(=O)N1CCC(c2cn(-c3c(F)cc(OC)cc3F)c(NC(=O)c3ccc(OC(F)F)cc3)n2)CC1 [Example 66, 4-[1-(2,6-Difluoro-4-methoxyphenyl)-2-[4-(difluoromethoxy)benzamido]-1H-imidazol-4-yl]-N-ethylpiperidine-1-carboxamide]
[1]
  EC50: 28 nM
[2]
  EC50: 540 nM

## COc1cc(F)c(-n2cc(C3CCN(C(=O)CCC(N)=O)CC3)nc2NC(=O)c2ccc(OC(F)F)cc2)c(F)c1 [Example 67, N-{4-[1-(3-Carbamoylpropanoyl)piperidin-4-yl]-1-(2,6-difluoro-4-methoxyphenyl)-1H-imidazol-2-yl}-4-(difluoromethoxy)benzamide]
[1]
  EC50: 54 nM
[2]
  EC50: 83 nM

## COc1cc(F)c(-n2cc(C3CCN(C(=O)CCO)CC3)nc2NC(=O)c2ccc(OC(F)F)cc2)c(F)c1 [Example 68, N-[1-(2,6-difluoro-4-methoxyphenyl)-4-[1-(3-hydroxypropanoyl)piperidin-4-yl]-1H-imidazol-2-yl]-4-(difluoromethoxy)benzamide]
[1]
  EC50: 45 nM
[2]
  EC50: 110 nM

## COc1cc(F)c(-n2cc(C(=O)N3CCC(CO)CC3)nc2NC(=O)c2ccc(OC(F)F)cc2)c(F)c1 [Example 69, N-[1-(2,6-difluoro-4-methoxyphenyl)-4-[4-(hydroxymethyl)piperidine-1-carbonyl]-1H-imidazol-2-yl]-4-(difluoromethoxy)benzamide]
[1]
  EC50: 86 nM
[2]
  EC50: 2990 nM

## COc1cc(F)c(-n2cc(C(C)C)nc2NC(=O)c2ccc(OC(F)F)cc2)c(F)c1 [Example 70, N-(1-(2,6-Difluoro-4-methoxyphenyl)-4-isopropyl-1H-imidazol-2-yl)-4-(difluoromethoxy)benzamide]
[1]
  EC50: 31 nM
[2]
  EC50: 970 nM
